Data from US20080262266A1, “Method for the Production of Xylyendiamine” (BASF SE, priority 2005, published 2008).
Like-named read-outs stand apart in the source and are kept apart here.

Columns and labels:
[1] = solubility of isophthalonitrile (IPN) in organic solvents; assay type: physicochemical; conditions: 60° C.
[2] = 70° C.; cited from earlier work

SMILES: N#Cc1cccc(C#N)c1 [IPN, 1,3-dicyanobenzene]
- solubility of IPN in MXDA ([1]; MXDA): 15 % by weight
- solubility of IPN in THF ([1]; THF): ~19 % by weight
- solubility of IPN in methanol ([1]; methanol): 18 % by weight
- solubility of IPN in MXDA [2]: about 20 % by weight
